Source: US20230043863A1, “HETEROAROMATIC DERIVATIVES FOR USE AS REGULATOR, PREPARATION METHOD THEREFOR AND USE THEREOF” (JIANGSU HANSOH PHARMACEUTICAL GROUP CO., LTD., priority 2018, published 2023)

Legend:
[1] = molecular target: TYK2 (Homo sapiens, UniProt P29597); assay: JAK kinase activity inhibition, TR-FRET (TYK2); type: biochemical; conditions: TR-FRET kinase assay
Procedure, shortened: (§1)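 TR-FRET read (≈620 and 665 nm) after EDTA quench and 1-24 h antibody detection at RT. Kinase 0.1-20 nM, peptide substrate + ATP, 0.5-5 h RT reaction in HEPES 50-250 mM, MgCl2 5-20 mM. IC50 from 4-parameter fit vs DMSO and no-kinase controls.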

[2] = tested on: JAK-STAT signal pathway of U266 cells; assay: Inhibition of cellular JAK-STAT signal pathway (STAT3 phosphorylation) in U266 cells; type: cell-based, human; conditions: Homo sapiens, U-266, INF-a 1000 U/mL stimulation
Procedure, shortened: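 U266 cells (100-300 K/well) preincubated 2 h at room temperature with serially diluted compound, then stimulated 15 min with IFN-α at 1000 U/mL final. After lysis, STAT3 phosphorylation read by LANCE Ultra TR-FRET (Eu antibody 0.5 nM, ULight antibody 5 nM, overnight) at 665 nm; IC50 from 4-parameter fit of inhibition versus DMSO and negative controls.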

[3] = molecular target: JAK1 (Homo sapiens, UniProt P23458); assay: JAK kinase activity inhibition, TR-FRET (JAK1); type: biochemical; conditions: TR-FRET kinase assay
JAK1, sequence (P23458 whole entry): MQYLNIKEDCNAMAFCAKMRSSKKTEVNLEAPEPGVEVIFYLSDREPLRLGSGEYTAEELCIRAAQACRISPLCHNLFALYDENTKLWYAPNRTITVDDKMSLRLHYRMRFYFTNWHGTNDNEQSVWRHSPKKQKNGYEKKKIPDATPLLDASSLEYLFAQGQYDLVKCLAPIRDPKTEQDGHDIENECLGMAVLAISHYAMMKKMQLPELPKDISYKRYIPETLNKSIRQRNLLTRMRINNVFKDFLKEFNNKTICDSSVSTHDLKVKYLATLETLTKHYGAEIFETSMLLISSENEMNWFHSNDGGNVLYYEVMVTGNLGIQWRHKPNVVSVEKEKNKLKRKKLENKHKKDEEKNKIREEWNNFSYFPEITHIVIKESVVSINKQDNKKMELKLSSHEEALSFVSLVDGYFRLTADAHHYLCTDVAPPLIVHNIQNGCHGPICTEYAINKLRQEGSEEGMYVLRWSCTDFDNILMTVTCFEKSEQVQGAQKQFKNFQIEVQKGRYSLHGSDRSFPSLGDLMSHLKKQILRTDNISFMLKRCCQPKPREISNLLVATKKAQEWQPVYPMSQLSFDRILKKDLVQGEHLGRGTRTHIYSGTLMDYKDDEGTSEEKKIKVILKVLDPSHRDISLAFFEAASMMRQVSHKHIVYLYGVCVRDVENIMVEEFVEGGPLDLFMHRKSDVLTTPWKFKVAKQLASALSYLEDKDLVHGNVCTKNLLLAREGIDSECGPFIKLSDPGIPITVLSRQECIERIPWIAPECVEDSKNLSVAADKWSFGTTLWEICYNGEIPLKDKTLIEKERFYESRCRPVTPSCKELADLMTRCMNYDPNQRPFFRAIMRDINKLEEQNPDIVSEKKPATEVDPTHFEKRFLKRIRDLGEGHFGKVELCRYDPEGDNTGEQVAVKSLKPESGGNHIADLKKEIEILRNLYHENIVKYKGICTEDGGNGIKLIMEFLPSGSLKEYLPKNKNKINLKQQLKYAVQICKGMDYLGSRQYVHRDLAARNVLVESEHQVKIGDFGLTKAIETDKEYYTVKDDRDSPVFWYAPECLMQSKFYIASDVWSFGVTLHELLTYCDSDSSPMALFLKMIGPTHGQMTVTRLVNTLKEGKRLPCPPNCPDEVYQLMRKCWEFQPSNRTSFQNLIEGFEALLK
Procedure, shortened: as §1

[4] = tested on: C57BL/6 mouse colitis model induced by DSS; assay: C57BL/6 mouse colitis model induced by DSS, daily disease index; type: in vivo; conditions: po, 216 h, 10 mg/kg p.o. BID, Day 0-9, vs vehicle group, read-out: reduction ratio of DAI AUC
Procedure: To evaluate the drug efficacy of the embodiment compound on the C57BL/6 mouse colitis model induced by DSS (dextran sulfate sodium).
According to the weight of the animal, BioBook software was used to randomly group the animals on day −1 to ensure that the weight values of each group of animals were similar to reduce deviation, and the grouping and dosing regimen are shown in the following Table.
Drinking water containing DSS: an appropriate amount of DSS powder was dissolved in the autoclaved drinking water to prepare a 2% DSS solution.
On day −1, the animals were equally divided into 12 groups with 10 animals in each group. (Refer to Table 1 for specific grouping scheme)
From 9:00 on day 0 to 9:00 on day 6, the mice in groups 2 to 9 were given 2% DSS aqueous solution for 6 days (from day 0 to day 6), after which the mice were allowed to freely drink normal water for 3 days (from 9:00 on day 6 to before necropsy on day 9). The day of modeling was counted as day 0. The DSS aqueous solution was wrapped in tin foil to protect it from light. The DSS aqueous solution was replaced every 2 days.
The mice in group 1 are allowed to drink normal water freely for 9 days (from 9:00 on day 0 to before necropsy on day 9).
The recording frequency was once a day, and 4 levels were rated according to the following standards:
Bloody stool (0: negative; 4: positive);
Stool score (0: normal; 2: loose stool; 4: diarrhea)
Daily Disease Index (DAI) was obtained by dividing the sum the scores of the above 3 parts by 3. DAI-time (day) curve based on the daily DAI score was plotted, and the peak area (AUC) under the curve was calculated. The reduction ratio of DAI AUC was calculated by comparing the administration group with the vehicle group, with a calculation formula of (DAI AUCadministration group-DAI AUCvehicle)/DAI AUCVehicle×100%

[5] = molecular target: JAK2 (Homo sapiens, UniProt O60674); assay: JAK kinase activity inhibition, TR-FRET (JAK2); type: biochemical; conditions: TR-FRET kinase assay
JAK2, sequence (O60674 whole entry): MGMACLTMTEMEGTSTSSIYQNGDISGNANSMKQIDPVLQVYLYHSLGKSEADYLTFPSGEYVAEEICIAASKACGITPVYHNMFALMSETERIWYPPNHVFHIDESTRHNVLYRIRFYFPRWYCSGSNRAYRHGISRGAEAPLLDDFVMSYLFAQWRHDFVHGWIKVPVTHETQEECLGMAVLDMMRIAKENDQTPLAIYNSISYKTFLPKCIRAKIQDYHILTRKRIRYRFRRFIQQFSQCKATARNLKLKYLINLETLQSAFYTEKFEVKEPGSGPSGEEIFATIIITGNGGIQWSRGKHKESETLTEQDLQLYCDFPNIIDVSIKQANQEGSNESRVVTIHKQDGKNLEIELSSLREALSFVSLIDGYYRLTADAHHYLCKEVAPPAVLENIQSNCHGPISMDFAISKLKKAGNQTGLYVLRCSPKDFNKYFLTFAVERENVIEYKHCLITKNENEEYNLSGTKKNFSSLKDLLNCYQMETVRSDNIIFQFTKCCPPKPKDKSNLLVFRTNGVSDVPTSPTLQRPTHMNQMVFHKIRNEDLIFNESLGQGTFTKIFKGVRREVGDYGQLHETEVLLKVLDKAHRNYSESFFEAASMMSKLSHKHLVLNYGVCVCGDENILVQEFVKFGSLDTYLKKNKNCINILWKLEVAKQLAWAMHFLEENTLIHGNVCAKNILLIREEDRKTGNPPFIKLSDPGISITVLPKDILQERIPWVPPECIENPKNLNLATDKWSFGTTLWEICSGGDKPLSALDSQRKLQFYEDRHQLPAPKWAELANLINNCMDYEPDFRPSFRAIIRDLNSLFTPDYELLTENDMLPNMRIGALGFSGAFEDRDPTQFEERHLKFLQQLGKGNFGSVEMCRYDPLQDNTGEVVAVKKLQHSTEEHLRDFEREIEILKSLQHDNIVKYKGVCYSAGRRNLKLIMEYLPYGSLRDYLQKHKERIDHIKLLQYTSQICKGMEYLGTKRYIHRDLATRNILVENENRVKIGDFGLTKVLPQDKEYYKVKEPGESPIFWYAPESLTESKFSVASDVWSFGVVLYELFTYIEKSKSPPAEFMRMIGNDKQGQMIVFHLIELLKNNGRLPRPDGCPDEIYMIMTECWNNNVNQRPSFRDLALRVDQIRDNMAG
Procedure: (§2) Experimental objective: The objective of this test is to test the inhibitory effect of the compound on JAK kinase activity.
(§3) Experimental method: the fluorescence resonance energy transfer (TR-FRET) method was used to test the inhibitory effect of the compound on JAK kinase activity, and the half inhibitory concentration IC50 of the compound on JAK kinase activity was obtained.
(§4) Kinase reaction was carried out in a white 384-well plate (PerkinElmer). 1-5 μL of different concentrations of the compound diluted with DMSO and ddH2O was added into each well, and 1-5 μL of the corresponding solvent was added to the positive control wells, followed by addition of 0.1-20 nM JAK kinase solution diluted with 1-5 μL of kinase buffer (HEPES 50-250 mM, MgCl2 5-20 mM, etc.) was added to each well. 1-5 μL of kinase buffer was added to the negative control well. 1-5 μL of substrate mixture containing peptide substrate and ATP was added. The plate was incubated at room temperature for 0.5-5 hours. […], EDTA and detection solution containing labeled antibody was added, and then the plate was incubated at room temperature for another 1-24 hours. The fluorescence signal value at about 620 nm and 665 nm of each well was measured by BioTek Synergy H1 plate reader, and the inhibition rate was calculated by the fluorescence signal value. According to the inhibition rate of different concentrations, the IC50 of the compound was obtained by curve fitting.
(§5) The percentage inhibition data of the wells treated with the compound was calculated with the positive control wells (DMSO control wells) and negative control wells (no kinase added) on the plate {% inhibition rate=100-[(test compound value-negative control value)]/(Positive control value-negative control value)×100}. IC50 value was calculated by using GraphPad prism to fit the data of different concentrations and corresponding percentage inhibition rates to a 4-parameter non-linear logic formula.

[6] = molecular target: T1, JAK3 (Homo sapiens, UniProt P52333); assay: JAK kinase activity inhibition, TR-FRET (JAK3); type: biochemical; conditions: TR-FRET kinase assay
T1 sequence (P52333 1-1124): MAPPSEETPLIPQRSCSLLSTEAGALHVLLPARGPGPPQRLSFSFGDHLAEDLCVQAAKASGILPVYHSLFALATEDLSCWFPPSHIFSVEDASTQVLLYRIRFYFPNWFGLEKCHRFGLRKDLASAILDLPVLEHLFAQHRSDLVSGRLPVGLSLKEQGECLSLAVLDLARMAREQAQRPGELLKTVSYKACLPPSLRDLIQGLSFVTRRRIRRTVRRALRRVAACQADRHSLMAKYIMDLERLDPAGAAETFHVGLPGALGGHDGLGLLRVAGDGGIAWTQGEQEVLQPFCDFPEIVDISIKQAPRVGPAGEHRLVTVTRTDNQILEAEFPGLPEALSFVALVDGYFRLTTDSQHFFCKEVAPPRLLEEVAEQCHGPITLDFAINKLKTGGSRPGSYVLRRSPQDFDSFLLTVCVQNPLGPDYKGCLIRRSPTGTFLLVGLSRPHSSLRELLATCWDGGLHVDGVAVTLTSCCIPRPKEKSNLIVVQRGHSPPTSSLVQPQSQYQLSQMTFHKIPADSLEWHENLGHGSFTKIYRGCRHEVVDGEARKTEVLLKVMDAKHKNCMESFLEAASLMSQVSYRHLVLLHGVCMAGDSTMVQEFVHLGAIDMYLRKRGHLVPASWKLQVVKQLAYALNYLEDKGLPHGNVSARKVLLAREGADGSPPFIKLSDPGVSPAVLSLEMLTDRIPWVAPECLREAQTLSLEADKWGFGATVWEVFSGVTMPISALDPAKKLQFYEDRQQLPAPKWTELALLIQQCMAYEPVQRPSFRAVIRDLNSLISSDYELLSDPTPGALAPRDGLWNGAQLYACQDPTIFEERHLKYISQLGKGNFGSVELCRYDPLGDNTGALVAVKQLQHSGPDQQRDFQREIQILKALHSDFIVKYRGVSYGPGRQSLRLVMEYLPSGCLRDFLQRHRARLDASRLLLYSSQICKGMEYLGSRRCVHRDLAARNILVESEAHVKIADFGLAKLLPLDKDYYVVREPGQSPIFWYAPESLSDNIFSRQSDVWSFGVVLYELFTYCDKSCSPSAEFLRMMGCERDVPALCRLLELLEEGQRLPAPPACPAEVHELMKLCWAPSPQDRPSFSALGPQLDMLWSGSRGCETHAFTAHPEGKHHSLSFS
Procedure: as §2, §3, §4, §5

TYK2, sequence (P29597 whole entry): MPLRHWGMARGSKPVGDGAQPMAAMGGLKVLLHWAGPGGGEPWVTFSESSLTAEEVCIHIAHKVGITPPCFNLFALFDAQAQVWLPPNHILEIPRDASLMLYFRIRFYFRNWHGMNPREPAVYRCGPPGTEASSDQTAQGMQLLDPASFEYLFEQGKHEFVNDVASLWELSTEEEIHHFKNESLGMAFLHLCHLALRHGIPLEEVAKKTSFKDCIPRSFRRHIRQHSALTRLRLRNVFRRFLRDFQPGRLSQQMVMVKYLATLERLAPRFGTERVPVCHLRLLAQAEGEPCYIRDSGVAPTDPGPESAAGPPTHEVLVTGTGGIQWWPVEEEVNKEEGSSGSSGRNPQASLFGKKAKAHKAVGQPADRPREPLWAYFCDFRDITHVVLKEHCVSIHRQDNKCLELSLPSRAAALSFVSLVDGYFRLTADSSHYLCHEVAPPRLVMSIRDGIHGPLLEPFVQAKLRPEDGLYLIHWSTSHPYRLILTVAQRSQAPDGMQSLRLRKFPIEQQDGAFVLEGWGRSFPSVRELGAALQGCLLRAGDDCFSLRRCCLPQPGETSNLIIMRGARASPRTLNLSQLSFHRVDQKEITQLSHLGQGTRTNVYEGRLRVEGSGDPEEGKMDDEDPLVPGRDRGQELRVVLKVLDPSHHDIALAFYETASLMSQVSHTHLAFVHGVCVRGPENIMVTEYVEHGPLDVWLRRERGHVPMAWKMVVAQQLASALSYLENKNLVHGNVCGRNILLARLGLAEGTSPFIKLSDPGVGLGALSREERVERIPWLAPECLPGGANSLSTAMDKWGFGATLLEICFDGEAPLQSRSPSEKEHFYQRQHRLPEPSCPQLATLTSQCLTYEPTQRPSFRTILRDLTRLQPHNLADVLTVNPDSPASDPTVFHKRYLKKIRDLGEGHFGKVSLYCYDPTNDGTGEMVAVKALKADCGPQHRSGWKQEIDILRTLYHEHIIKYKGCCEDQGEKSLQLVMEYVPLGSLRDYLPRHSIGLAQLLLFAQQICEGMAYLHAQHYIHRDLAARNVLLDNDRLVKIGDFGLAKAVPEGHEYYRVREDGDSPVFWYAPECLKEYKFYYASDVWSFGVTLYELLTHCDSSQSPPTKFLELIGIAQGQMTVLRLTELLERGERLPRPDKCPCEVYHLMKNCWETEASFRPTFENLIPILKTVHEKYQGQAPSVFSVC

| SMILES | IC50 [1] [nM] | IC50 [2] [nM] | IC50 [3] [nM] | change in vivo at 10 mg/kg [4] [%] | IC50 [5] [nM] | IC50 [6] [nM] |
| --- | --- | --- | --- | --- | --- | --- |
| Cc1cc(Nc2nc(N[C@@H]3C[C@H]4CC[C@@H](C3)N4CCC#N)nc3sccc23)n[nH]1 [Embodiment 62, 3-((3-exo)-3-((4-((5-methyl-1H-pyrazol-3-yl)amino)thieno[2,3-d]pyrimidin-2-yl)amino)-8-azabicyclo[3.2.1]oct-8-yl)propionitrile] | 0.17 | 1.9 | 0.08 | -32.2 | – | – |
| Cc1cc(Nc2nc(N[C@@H]3C[C@H]4CCC[C@@H](C3)N4C(=O)CN(C)C)nc3sccc23)n[nH]1 [Embodiment 242, 2-(dimethylamine)-1-((3-exo)-3-((4-((5-methyl-1H-pyrazol-3-yl)amino)thieno[2,3-d]pyrimidin-2-yl)amino)-9-azabicyclo[3.3.1]non-9-yl)ethane-1-one] | 0.89 | 0.24 | 0.21 | – | 0.85 | 6.58 |
| Cc1cc(Nc2nc(N[C@@H]3C[C@H]4CC[C@@H](C3)N4C(=O)CN(C)C)nc3sccc23)n[nH]1 [Embodiment 243, 2-(dimethylamine)-1-((3-exo)-3-((4-((5-methyl-1H-pyrazol-3-yl)amino)thieno[2,3-d]pyrimidin-2-yl)amino)-8-azabicyclo[3.2.1]oct-8-yl)ethane-1-one] | 1.48 | 0.24 | 0.53 | – | 2.42 | 148 |
| Cc1cc(Nc2nc(N[C@@H]3C[C@H]4CC[C@@H](C3)N4S(=O)(=O)c3cccnc3)nc3sccc23)n[nH]1 [Embodiment 265, N^4-(5-methyl-1H-pyrazol-3-yl)-N^2-((3-exo)-8(pyridin-3ylsulfonyl)-8-azabicyclo[3.2.1]oct-3-yl)thieno[2,3-d]pyrimidin-2,4-diamine] | 1 | 20.4 | 1.29 | – | 1.81 | 170 |
| N#CCCN1[C@@H]2CC[C@H]1C[C@H](Nc1nc(Nc3cc(CO)[nH]n3)c3ccsc3n1)C2 [Embodiment 273] | 2.19 | 41.9 | 1.28 | – | 2.96 | > 200 |
